Experimental data taken from ChEMBL document CHEMBL1201862, “PubChem BioAssay data set” (2004).
Active and inactive are the calls of the source.

Tests used:
Caspase-6 = molecular target: T1, Caspase-6 (Homo sapiens, UniProt P55212); experiment: inhibition of CASP6 peptide cleavage – biochemical, VEID-R110 fluorescence, cherry-pick, dose response (AID 720632)
T1 sequence (P55212 whole entry): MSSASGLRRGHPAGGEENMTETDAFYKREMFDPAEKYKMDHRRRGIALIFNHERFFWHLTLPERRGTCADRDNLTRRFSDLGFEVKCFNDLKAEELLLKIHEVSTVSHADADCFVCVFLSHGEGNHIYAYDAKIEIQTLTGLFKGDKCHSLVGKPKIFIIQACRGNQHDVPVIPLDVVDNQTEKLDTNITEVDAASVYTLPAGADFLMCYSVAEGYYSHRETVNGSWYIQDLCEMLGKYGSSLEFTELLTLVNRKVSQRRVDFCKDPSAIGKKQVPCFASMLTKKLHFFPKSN

Large T antigen = Large T antigen (Simian virus 40, UniProt P03070); assay type: functional, Betapolyomavirus macacae;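 further: Confirmatory-stage PubChem screen for compounds that inhibit SV40 T antigen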
[1] = molecular target: T2, Rac GTPase-activating protein 1 (Homo sapiens, UniProt Q9H0H5); experiment: blockers of MgcRacGAP-driven Rac1 GTP hydrolysis – biochemical, ADP Hunter fluorescence, primary and confirmatory, confirmation (AID 624330); assay type: functional
T2 sequence (Q9H0H5 whole entry): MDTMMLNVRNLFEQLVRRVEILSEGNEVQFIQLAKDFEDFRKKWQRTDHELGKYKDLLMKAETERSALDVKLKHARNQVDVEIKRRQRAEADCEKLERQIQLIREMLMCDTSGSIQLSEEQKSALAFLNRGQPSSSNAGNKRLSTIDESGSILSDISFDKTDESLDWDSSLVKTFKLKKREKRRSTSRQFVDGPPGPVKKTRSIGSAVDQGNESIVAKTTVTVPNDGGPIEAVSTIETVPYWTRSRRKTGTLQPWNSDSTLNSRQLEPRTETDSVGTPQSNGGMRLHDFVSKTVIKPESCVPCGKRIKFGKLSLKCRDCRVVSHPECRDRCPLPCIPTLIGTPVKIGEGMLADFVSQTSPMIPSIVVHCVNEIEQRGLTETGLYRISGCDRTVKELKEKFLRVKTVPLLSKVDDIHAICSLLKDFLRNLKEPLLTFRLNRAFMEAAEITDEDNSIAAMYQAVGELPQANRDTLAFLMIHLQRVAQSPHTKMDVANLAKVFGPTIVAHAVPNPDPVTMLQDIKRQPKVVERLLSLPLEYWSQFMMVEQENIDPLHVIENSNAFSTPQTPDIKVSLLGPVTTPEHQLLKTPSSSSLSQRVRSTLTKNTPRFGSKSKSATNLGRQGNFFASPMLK

Cytochrome P450 2C9 = Cytochrome P450 2C9 (Homo sapiens, UniProt P11712)
[2] = molecular target: T3, Replicative DNA helicase DnaB (Mycobacterium tuberculosis, UniProt P9WMR3); experiment: DnaB intein splicing inhibitors, dose response, biochemical, cell-free fluorescence (AID 449749); assay type: functional
T3 sequence (P9WMR3 whole entry): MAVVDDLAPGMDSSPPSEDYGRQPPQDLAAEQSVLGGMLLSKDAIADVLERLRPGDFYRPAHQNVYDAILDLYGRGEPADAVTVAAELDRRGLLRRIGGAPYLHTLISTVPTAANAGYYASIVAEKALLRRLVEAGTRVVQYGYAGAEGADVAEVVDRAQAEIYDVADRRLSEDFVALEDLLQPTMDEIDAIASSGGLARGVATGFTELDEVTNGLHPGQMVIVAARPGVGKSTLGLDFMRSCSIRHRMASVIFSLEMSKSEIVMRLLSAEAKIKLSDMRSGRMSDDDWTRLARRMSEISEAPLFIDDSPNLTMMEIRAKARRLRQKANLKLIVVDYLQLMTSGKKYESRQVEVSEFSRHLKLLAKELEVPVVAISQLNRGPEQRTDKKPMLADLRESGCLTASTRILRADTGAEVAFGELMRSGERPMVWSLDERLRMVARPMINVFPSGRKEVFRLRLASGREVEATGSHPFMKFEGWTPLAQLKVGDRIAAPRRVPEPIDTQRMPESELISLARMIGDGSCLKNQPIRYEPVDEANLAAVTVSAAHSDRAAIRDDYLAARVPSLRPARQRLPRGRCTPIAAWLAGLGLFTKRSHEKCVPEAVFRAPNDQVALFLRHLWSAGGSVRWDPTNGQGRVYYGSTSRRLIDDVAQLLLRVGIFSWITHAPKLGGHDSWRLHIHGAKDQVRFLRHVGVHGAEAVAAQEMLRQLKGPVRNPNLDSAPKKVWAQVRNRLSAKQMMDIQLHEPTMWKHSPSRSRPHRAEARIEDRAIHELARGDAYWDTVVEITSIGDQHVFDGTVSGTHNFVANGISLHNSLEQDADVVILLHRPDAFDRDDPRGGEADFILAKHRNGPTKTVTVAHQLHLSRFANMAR

Protein RecA = molecular target: T4, Protein RecA (Mycobacterium tuberculosis, UniProt P9WHJ3); experiment: Fluorescence Cell-Free Homogeneous Dose Retest to Identify Inhibitors of RecA-Intein Splicing Activity. [Related pubchem assays (depositor defined):AID2097, AID2223, AID489010, AID492950]; assay type: functional
T4 sequence (P9WHJ3 whole entry): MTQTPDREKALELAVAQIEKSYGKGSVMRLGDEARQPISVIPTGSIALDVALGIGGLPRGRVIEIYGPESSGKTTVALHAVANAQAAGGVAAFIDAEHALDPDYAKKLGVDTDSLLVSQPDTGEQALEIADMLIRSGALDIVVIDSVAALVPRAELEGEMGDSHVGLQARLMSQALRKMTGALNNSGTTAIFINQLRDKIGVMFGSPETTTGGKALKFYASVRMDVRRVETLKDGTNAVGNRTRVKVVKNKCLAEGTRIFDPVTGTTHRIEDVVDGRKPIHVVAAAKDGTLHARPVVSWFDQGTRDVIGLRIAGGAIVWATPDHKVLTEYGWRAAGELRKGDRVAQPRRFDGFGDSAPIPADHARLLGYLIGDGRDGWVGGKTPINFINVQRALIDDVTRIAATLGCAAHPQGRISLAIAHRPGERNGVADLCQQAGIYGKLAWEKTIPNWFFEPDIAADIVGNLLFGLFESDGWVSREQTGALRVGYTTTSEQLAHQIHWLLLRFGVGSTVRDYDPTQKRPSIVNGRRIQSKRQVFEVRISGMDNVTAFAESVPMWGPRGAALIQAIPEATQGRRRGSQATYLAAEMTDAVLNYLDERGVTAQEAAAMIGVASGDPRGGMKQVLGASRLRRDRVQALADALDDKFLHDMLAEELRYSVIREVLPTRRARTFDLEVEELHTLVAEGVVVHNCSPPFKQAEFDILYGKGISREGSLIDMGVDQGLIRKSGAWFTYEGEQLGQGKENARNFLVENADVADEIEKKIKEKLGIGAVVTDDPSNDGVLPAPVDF

[3] = A cytotoxicity screen of small molecule inhibitors of the PhoP region in Salmonella typhi identified in the primary screen. [Related pubchem assays: 1850, 1864, 1985 ]; assay type: functional
[4] = molecular target: FAD-linked sulfhydryl oxidase ALR (Homo sapiens, UniProt P55789); experiment: ALR-catalysed DTT oxidation blockers – biochemical, H2O2 detection, luminescence, cherry-pick, dose response (AID 493248)
[5] = THP-1 cell cytotoxicity, dose response, cytotoxicity control for non-replicating M. tuberculosis project (AID 489025); assay type: functional

Sequence of Large T antigen (P03070 whole entry): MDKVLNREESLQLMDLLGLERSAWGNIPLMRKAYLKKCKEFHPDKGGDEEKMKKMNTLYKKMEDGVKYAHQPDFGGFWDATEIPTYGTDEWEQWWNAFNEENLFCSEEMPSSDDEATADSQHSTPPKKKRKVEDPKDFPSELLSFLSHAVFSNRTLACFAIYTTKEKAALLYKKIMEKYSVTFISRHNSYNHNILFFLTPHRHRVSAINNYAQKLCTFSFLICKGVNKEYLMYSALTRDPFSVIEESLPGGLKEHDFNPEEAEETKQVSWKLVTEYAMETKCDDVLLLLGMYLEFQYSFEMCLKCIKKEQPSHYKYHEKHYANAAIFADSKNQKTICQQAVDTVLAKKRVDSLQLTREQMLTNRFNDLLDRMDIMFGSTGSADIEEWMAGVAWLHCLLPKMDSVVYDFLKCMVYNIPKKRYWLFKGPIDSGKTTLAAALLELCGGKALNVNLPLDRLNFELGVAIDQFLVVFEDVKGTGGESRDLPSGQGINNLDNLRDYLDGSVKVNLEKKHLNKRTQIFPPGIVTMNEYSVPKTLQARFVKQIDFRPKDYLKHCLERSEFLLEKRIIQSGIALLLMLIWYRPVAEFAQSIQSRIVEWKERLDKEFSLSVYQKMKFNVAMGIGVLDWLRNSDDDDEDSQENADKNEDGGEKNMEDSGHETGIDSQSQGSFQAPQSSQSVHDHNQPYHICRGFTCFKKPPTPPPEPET
Sequence of Cytochrome P450 2C9 (P11712 whole entry): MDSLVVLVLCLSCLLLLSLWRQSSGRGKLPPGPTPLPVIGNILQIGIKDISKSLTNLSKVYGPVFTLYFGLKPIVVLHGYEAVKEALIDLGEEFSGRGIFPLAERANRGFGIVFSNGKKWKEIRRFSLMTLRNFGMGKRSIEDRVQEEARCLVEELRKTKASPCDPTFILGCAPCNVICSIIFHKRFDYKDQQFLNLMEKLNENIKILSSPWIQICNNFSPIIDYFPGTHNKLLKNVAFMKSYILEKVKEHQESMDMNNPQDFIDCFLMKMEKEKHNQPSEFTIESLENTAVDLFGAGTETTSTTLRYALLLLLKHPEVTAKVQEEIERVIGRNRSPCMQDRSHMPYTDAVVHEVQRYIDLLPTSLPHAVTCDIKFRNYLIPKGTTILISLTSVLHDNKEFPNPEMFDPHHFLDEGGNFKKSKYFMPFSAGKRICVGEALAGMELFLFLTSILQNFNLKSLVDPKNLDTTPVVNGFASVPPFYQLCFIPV
Sequence of FAD-linked sulfhydryl oxidase ALR (P55789 whole entry): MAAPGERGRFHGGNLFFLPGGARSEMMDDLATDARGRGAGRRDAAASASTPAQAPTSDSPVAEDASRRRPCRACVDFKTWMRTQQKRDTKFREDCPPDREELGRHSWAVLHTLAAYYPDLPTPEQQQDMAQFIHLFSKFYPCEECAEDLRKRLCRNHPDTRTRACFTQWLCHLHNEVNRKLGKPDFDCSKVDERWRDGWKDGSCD

C/C(=N\NC(=O)c1cc(O)ccc1O)c1cccc(NC(=O)c2cccc(Cl)c2)c1
AC50 (Caspase-6): 1.18 µM (active)

CN(C)c1ccc(NC(S)=NCC2CCCO2)cc1 (configuration not stated)
IC50 (Large T antigen): 14.3 µM (active)
IC50 [1]: 85.6 µM (active)

O=C(/C=C\c1ccc(O)c(O)c1)O[C@@H]1C[C@](O)(C(=O)O)C[C@@H](O)[C@@H]1O
AC50 (Cytochrome P450 2C9): inconclusive

COc1ccc(/C=C(/C#N)C(=O)Nc2ccc(O)cc2)cc1C(=O)O
IC50 (Large T antigen): 36.9 µM (active)
AC50 [2]: 32.1 µM (active)
EC50 (Protein RecA): 8.43 µM (active)

CC1CC(C)CN(S(=O)(=O)c2cccc3cccnc23)C1 (configuration not stated)
EC50 [3]: > 50 µM (active)
AC50 [4]: 17.4 µM (active)

NC(=O)CN1N=C(c2cc(Cl)sc2Cl)CSC1=O
EC50 [3]: > 50 µM (active)

Cc1ccc(C(=O)c2cn(-c3ccc(F)c(Cl)c3)nn2)cc1
AC50 (Cytochrome P450 2C9): inconclusive

Clc1ccc(CN2CCN(/N=C/c3ccco3)CC2)cc1
EC50 [3]: > 50 µM (active)

Oc1cc(-c2ccc(Br)cc2)[nH]n1
IC50 (Large T antigen): 53.9 µM (active)
AC50 [2]: 3.06 µM (active)
EC50 (Protein RecA): 0.718 µM (active)

COc1ccc2c(C(=O)CN(C)C3CCCCC3)c[nH]c2c1
EC50 [3]: > 50 µM (active)

Cn1c(SCc2c(F)cccc2Cl)nc2c(c1=O)SCC2
CC50 [5]: > 40 µM (active)
